The results in this text go back to patent publication US9771327B2, “Compounds and methods for the treatment of cystic fibrosis” (FLATLEY DISCOVERY LAB, LLC, priority 2013, dated 2017).

In this test the target is T1, human ΔF508-CFTR (Homo sapiens, UniProt P13569, DEL508-508).
T1 construct: expressed in transfected cells
In words: CFTR-YFP high throughput assay, CFTR corrector protocol (YFP iodide flux quench). The format is cell-based. To be noted: FRT cells expressing human ΔF508-CFTR and YFP-H148Q/I152L, 24-26 h incubation with compound; for Emax: normalized to the positive control, read-out: EMAX (% Efficacy, EMAX normalized to the positive control); for EC50: stimulated with 20 μM Forskolin & 30 μM P3. The procedure: Assays for Detecting and Measuring the Effect of Compounds on dF508-CFTR Channels CFRT-YFP High Throughput Assay-CFTR Corrector Protocol:
This protocol is designed to selectively screen small molecule compounds for F508del CFTR corrector activities in the HTS YFP flux assay. In this protocol, the cells are incubated with testing compounds for 24 hours, washed with PBS, stimulated with forskolin and a standard potentiator, and read on a 384-well HTS plate reader, such as the Hamamatsu FDDD-6000.
YFP fluorescence intensity is acquired at high speed before and after iodide buffer is injected to the assay cells. Iodide enters the cells via active CFTR channels in the plasma membrane, and quenches the YFP fluorescence. The rate of fluorescence quenching is proportionally related to the total CFTR activities in the cell membrane. dF508-CFTR corrector accelerates YFP quenching by increasing the number of CFTR molecules in the testing cell plasma membrane.
This method was initially developed for bench top plate readers (Galietta et al., 2001), and was adapted to the HTS format (Sui et al. Assay Drug Dev. Technol. 2010).
Fisher Rat Thyroid (FRT) cells stably expressing both human ΔF508-CFTR and a halide-sensitive yellow fluorescent protein (YFP-H148Q/I152L 25,22) (Galietta et al., Am. J. Physiol Cell Physiol, 281(5), C1734, 2001) were cultured on plastic surface in Coon's modified Ham's F12 medium supplemented with FBS 10%, L-glutamine 2 mM, penicillin 100 U/ml, and streptomycin 100 μg/ml. G418 (0.75-1.0 mg/ml) and zeocin (3.2 ug/ml) were used for selection of FRT cells expressing ΔF508-CFTR and YFP. For primary screening, FRT cells were plated into 384-well black wall, transparent bottom microtiter plates (Costar; Corning Inc.) at a cell density of 20,000-40,000 per well. Test compound was applied to the cells at varying concentrations ranging from 2 nM-[…] in either a 2-fold or 3-fold dilution series. Cells were incubated in a cell culture incubator at 37° C. with 5% CO2 for 24-26 h. Assay plates were washed with DPBS media (Thermo, cat #SH30028.02) to remove unbound cells and compound. Stimulation media (25 μL) containing 20 μM Forskolin & 30 μM P3 [6-(Ethyl-phenyl-sulfonyl)-4-oxo-1,4-dihydro-quinoline-3-carboxylic acid 2-methoxy-benzylamide] in Hams F-12 coon's modified media was added to the plate wells and incubated at room temperature for 60-120 min. 25 μL of HEPES-PBS -I buffer (10 mM HEPES, 1 mM MgCl2, 3 mM KCl, 1 mM CaCl2, 150 mM NaI) was then added and fluorescence quench curves (Excitation 500 nm/Emission 540 nm; exposure 136 ms) were immediately recorded on an FDSS-6000 plate reader (Hamamatsu). Quench rates were derived from least squares fitting of the data as described by Sui et al. (2010).

A word on the Emax: it is the greatest response seen or fitted, relative to the assay's reference. As a reminder, the EC50 is the concentration giving half of the maximal effect.

The structures appear in SMILES notation. Bounds are passed on as bounds.

T1 sequence (P13569 with tags, fused parts or gaps DEL508-508): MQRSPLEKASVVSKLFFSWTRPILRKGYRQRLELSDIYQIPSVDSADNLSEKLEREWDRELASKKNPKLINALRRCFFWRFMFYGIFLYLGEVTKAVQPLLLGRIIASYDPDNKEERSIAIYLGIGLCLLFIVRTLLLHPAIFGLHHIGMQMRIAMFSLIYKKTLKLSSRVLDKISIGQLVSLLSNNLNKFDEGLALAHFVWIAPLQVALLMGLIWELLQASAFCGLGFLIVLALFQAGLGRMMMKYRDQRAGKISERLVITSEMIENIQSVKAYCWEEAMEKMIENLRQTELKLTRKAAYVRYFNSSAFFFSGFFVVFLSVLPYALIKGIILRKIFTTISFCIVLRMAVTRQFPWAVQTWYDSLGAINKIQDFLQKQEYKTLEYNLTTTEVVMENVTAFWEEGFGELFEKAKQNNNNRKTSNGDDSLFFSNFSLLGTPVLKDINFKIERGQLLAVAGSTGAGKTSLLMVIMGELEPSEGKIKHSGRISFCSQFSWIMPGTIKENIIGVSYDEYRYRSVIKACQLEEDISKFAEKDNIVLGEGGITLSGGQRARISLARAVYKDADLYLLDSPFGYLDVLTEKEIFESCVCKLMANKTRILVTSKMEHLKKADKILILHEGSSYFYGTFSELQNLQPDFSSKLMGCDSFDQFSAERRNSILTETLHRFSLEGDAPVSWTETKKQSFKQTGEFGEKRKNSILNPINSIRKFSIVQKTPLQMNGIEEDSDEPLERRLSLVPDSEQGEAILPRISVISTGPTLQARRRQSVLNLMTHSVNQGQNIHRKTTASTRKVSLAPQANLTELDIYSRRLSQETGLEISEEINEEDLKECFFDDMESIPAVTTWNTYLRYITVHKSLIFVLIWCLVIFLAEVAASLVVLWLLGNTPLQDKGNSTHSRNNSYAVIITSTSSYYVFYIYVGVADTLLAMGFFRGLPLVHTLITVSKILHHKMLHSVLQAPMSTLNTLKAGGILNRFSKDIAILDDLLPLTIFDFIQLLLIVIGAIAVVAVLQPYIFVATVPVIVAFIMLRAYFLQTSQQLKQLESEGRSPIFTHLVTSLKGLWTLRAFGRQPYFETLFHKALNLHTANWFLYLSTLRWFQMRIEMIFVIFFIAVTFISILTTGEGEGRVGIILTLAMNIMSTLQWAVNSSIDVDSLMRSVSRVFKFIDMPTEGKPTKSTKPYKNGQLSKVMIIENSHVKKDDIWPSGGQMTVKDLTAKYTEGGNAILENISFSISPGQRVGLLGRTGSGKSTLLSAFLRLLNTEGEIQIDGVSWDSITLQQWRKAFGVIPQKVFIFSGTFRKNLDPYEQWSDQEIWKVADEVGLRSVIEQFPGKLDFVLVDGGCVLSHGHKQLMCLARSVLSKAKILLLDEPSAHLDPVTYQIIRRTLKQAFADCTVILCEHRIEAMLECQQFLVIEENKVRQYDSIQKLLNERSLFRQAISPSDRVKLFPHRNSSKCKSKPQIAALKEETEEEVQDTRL

On to `COc1ccc(S(=O)(=O)N2CCC(n3c(-c4cnc[nH]4)nc4cccnc43)CC2)cc1Cl` [Example 32], for which the Emax lay in the range of 30 to 80% and the EC50 is greater than 20 µM.

Take `COc1ccc(S(=O)(=O)N2CCC(n3c(-c4nc5ccccc5[nH]4)nc4cccnc43)CC2)cc1Cl` [Example 33]: the maximal effect (Emax) fell in the range of 30 to 80% and the 50% effective concentration (EC50) was in the range of 10 to 20 µM.

Take `COc1ccc(S(=O)(=O)N2CCC(n3c(-c4ccc5[nH]cnc5c4)nc4cccnc43)CC2)cc1Cl` [Example 34]: the maximal effect (Emax) was 30 to 80% and the 50% effective concentration (EC50) is less than 10 µM.

With `COc1ccc(S(=O)(=O)N2CCC(n3c(-c4ccccc4)nc4cc(Cl)cnc43)CC2)cc1Cl` [Example 35], the Emax lay in the range of 30 to 80% and the EC50 was less than 10 µM.

`COc1ccc(S(=O)(=O)N2CCC(n3c(-c4ccccc4)nc4ccc(Cl)nc43)CC2)cc1Cl` [Example 36]: the Emax was in the range of 10 to 30% and the EC50 was less than 10 µM.

Consider `COc1cc(S(=O)(=O)N2CCC(n3c(-c4ccccc4)nc4cccnc43)CC2)ccc1Cl` [Example 37], for which the Emax lay in the range of 30 to 80% and the half-maximal effective concentration (EC50) was less than 10 µM.
